Measurements as given in patent US20160168724A1, “POLYVINYLBUTYRAL COATING CONTAINING THIOL CORROSION INHIBITORS” (The Boeing Company, priority 2014, published 2016).

Test: Linear sweep voltammetry with rotating disc electrode, inhibitors in electrolyte solution
Conditions: for Current (A) @ −800 mV: 10 ppm inhibitor solution in 5% NaCl-PBS pH 7, copper rotating disc electrode 1000 rpm, LSV; for IE (inhibitor efficiency, Equation 1): 10 ppm inhibitor solution, from current at -800 mV versus blank
Method: Linear sweep voltammetry (LSV) and chronoamperometry were used to evaluate the performance of the thio-containing corrosion inhibitors as electroactive cathodic-thio compounds. The LSV experiments were performed with a rotating disc electrode (RDE). The rotating disc electrode technique provides certain benefits in measurement sensitivity because the technique indicates current at steady state with a kinetic flow over the electrode rather than a static measurement in solution (FIG. 1).
Inhibitor performance was measured based on the ability of the compound to prevent the oxygen reduction reaction in electrolyte using a rotating disc electrode. If current values were closer to zero then the inhibitor was considered to be appropriate because the oxygen reduction reaction, which is an indication of corrosion, was sequestered or stopped. Solutions of known concentration (e.g., containing 10 ppm inhibitor) were used to compared inhibitors. Inhibitor efficiency (IE), is calculated using Equation 1 (IE corrects for contributions not attributable to the inhibitor (e.g., electrolyte)).
Inhibitor Efficiency=(iinhibitor−iblank)/iblank (Equation 1)
Performance of different inhibitors (10 ppm solutions) was evaluated by measuring current value (A) at −800 mV and determining inhibitor efficiency, the results of which are shown in Table 5.
A 5% (wt/wt) sodium chloride solution (that is, electrolyte system A of Table 7) was selected to simulate a highly corrosive environment and potentially accelerate the corrosion. The electrolyte was buffered to eliminate changes in pH from effecting inhibitor performance measurements. A pH of 7 was selected because it was similar to seawater.
The 5% (wt/wt) (0.9 M) sodium chloride electrolyte solution was generated by adding reagent grade sodium chloride to <18 M·cm resistivity to deionized water (52.6 gm NaCl to 1 liter water). The solution was then buffered to neutral pH 7 with phosphate buffered saline tablets from Sigma Aldrich-(P4417-100TAB), 1 tablet per 200 ml of solution Inhibitors were dissolved in an 5% sodium chloride electrolyte buffered with phosphate buffered saline to maintain the pH at 7. Ten parts per million (10 ppm) solutions were generated by taking an aliquot of solutions with a higher known inhibitor concentration and diluting to make a 10 ppm solution. In most cases the higher concentration target was 50 ppm. The initial solutions were generated by adding 0.050 gm of inhibitor in a 5% NaCl buffered electrolyte in a one liter volumetric flask. Not all of the inhibitor dissolved, so the solution was filtered to calculate the solubility and the actual concentration. The solutions were stirred overnight with a stir bar and then filtered using a pre-weighed, 4.7 cm diameter, 1.0 micron pore size glass fiber filters (Whatman Grade GF/B 1821-047) and a Millipore glass filter funnel. The glass filter and clamp funnel was an improvement to previous filter methods that utilized a Buchner funnel and paper filters. After the filtrate was collected, the funnel and filter paper were rinsed thoroughly with deionized water to ensure that no electrolyte salts were trapped in the filter and that residual solids on the sides of the filter funnel were collected. The filter with solids was dried over night in an approximately 120° C. oven, allowed to come to room temperature in a desiccator, and weighed. The actual solution concentration was calculated based on the actual inhibitor dissolved. Concentration calculations also accounted for residual salts that are sometimes still present in the filter. These were measured by running a blank. An aliquot was taken of the 50 ppm solution and a final 10 ppm solution generated. […]

With Sc1nsc(S)n1 [1,2,4 DMcT, 1,2,4-Thiadiazole-3,5-dithiol] the “Current (A) @ −800 mV” value was −1.53 × 10^−4 A and the “IE (inhibitor efficiency, Equation 1)” value was 0.70.
For Sc1nnc([S][Al]([S]c2nnc(S)s2)[S]c2nnc(S)s2)s1 [1:3AlDMcT (acid), [Al:2,5-dimercapto-1,3,4-thiadiazole (1:3)] (acid)], the “Current (A) @ −800 mV” value was −2.83 × 10^−4 A and the “IE (inhibitor efficiency, Equation 1)” value was 0.44.
For Sc1nnc([S][Al]([S]c2nnc(S)s2)[S]c2nnc(S)s2)s1 [1:3AlDMcT, [Al:2,5-dimercapto-1,3,4-thiadiazole (1:3)]], the “Current (A) @ −800 mV” value was −2.25 × 10^−4 A and the “IE (inhibitor efficiency, Equation 1)” value was 0.55.
For Sc1nnc(SSc2nnc(S)s2)s1 [Vanlube 829, 5,5′-Dithiobis(1,3,4-Thiadiazole-2(3H)-thione)], the “Current (A) @ −800 mV” value was −2.68 × 10^−4 A and the “IE (inhibitor efficiency, Equation 1)” value was 0.47.
In the case of N1=C2SSc3nnc(s3)SSC(=N1)S2 [BDTD, Bis-[2,5-dithio-1,3,4-thiadiazole]], the “Current (A) @ −800 mV” value was −3.00 × 10^−4 A and the “IE (inhibitor efficiency, Equation 1)” value was 0.40.
In the case of “[Al:2,5-dimercapto-1,3,4-thiadiazole (3:1)] [3:1 AlDMcT]”, the “Current (A) @ −800 mV” value was −2.59 × 10^−4 A and the “IE (inhibitor efficiency, Equation 1)” value was 0.49.
